Earlier results, collected in patent US20120191185A1, “OPHTHALMIC INTRAOCULAR LENS FOR PROMOTING HEALING” (priority 2011, published 2012).

Columns and labels:
[1] = system: posterior capsule opacification; details: rabbits
[2] = subconjunctival administration
[3] = primates
corneal anterior stroma = details: mammals, clinical setting

O=c1[nH]cc(F)c(=O)[nH]1 [5-fluorouracil]
effect on posterior capsule opacification [1]: reduces posterior capsule opacification | ocular complications [2]: corneal epithelial defects and other ocular complications

COc1cc2c(c(OC)c1OC)-c1ccc(OC)c(=O)cc1[C@@H](NC(C)=O)CC2 [colchicine]
inhibition of lens epithelial cell proliferation and migration (lens epithelial cell): potent inhibitor | toxic effect on the optic nerve [3]: temporary toxic effect on the optic nerve

platelet derived growth factor
corneal anterior stroma healing (corneal anterior stroma): accelerate corneal anterior stroma healing
